target: T1, recombinant human Estrogen Receptor alpha ligand binding domain, residues 307-554 (ER alpha-LBD (GST)) (Homo sapiens, UniProt P03372); assay: ERα binding assay (LanthaScreen TR-FRET competition); details: TR-FRET competition with Fluormone ES2 tracer, 4 hours at room temperature; single experiment or average of two or more
T1 construct: made in house
T1 sequence (P03372 307-554): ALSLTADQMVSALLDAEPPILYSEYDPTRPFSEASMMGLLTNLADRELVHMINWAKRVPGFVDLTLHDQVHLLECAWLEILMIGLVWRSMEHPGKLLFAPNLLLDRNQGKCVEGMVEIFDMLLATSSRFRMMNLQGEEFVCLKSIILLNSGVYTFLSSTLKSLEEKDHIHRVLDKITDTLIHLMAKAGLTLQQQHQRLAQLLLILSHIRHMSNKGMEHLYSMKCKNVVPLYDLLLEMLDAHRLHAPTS

Point of comparison: `Cc1ncsc1-c1ccc([C@@H](CN)NC(=O)[C@@H]2C[C@@H](O)CN2C(=O)[C@@H](NC(=O)COCCOCCOCCOc2cc(F)c([C@@H]3c4[nH]c5ccccc5c4C[C@@H](C)N3CC(C)(C)F)c(F)c2)C(C)(C)C)cc1` [Example 106, (2S,4R)—N-[(1S)-2-amino-1-[4-(4-methylthiazol-5-yl)phenyl]ethyl]-1-[(2S)-2-[[2-[2-[2-[2-[3,5-difluoro-4-[(1R,3R)-2-(2-fluoro-2-methyl-propyl)-3-methyl-1,3,4,9-tetrahydropyrido[3,4-b]indol-1-yl]phenoxy]ethoxy]ethoxy]ethoxy]acetyl]amino]-3,3-dimethyl-butanoyl]-4-hydroxy-pyrrolidine-2-carboxamide], IC50 0.8 nM. Against it:
- Cc1ncsc1-c1ccc([C@H](C)NC(=O)[C@@H]2C[C@@H](O)CN2C(=O)[C@@H](NC(=O)COCCOCCCCOc2cc(F)c([C@@H]3c4[nH]c5ccccc5c4C[C@@H](C)N3CC(C)(C)F)c(F)c2)C(C)(C)C)cc1 [Example 153, (2S,4R)-1-((S)-2-(2-(2-(4-(3,5-Difluoro-4-((1R,3R)-2-(2-fluoro-2-methylpropyl)-3-methyl-2,3,4,9-tetrahydro-1H-pyrido[3,4-b]indol-1-yl)phenoxy)butoxy)ethoxy)acetamido)-3,3-dimethylbutanoyl)-4-hydroxy-N—((S)-1-(4-(4-methylthiazol-5-yl)phenyl)ethyl)pyrrolidine-2-carboxamide] — 2.7-fold lower, 0.3 nM
- Cc1ncsc1-c1ccc(CNC(=O)[C@@H]2C[C@@H](O)CN2C(=O)[C@@H](NC(=O)COCCOCCCCCOc2cc(F)c([C@@H]3c4[nH]c5ccccc5c4C[C@@H](C)N3CC(F)F)c(F)c2)C(C)(C)C)cc1 [Example 167, (2S,4R)-1-((S)-2-(2-(2-((5-(4-((1R,3R)-2-(2,2-Difluoroethyl)-3-methyl-2,3,4,9-tetrahydro-1H-pyrido[3,4-b]indol-1-yl)-3,5-difluorophenoxy)pentyl)oxy)ethoxy)acetamido)-3,3-dimethylbutanoyl)-4-hydroxy-N-(4-(4-methylthiazol-5-yl)benzyl)pyrrolidine-2-carboxamide] — within 1.5-fold, 0.9 nM
- Cc1ncsc1-c1ccc(CNC(=O)[C@@H]2C[C@@H](O)CN2C(=O)[C@@H](NC(=O)C(F)(F)OCCCCCCOc2cc(F)c([C@@H]3c4[nH]c5ccccc5c4C[C@@H](C)N3CC(C)(C)F)c(F)c2)C(C)(C)C)cc1 [Example 116, (2S,4R)-1-((S)-2-(2-((6-(3,5-Difluoro-4-((1R,3R)-2-(2-fluoro-2-methylpropyl)-3-methyl-2,3,4,9-tetrahydro-1H-pyrido[3,4-b]indol-1-yl)phenoxy)hexyl)oxy)-2,2-difluoroacetamido)-3,3-dimethylbutanoyl)-4-hydroxy-N-(4-(4-methylthiazol-5-yl)benzyl)pyrrolidine-2-carboxamide] — within 1.5-fold, 1 nM
- CC(=O)O[C@@H]1C[C@@H](C(=O)NCc2ccc(-c3scnc3C)cc2)N(C(=O)[C@@H](NC(=O)COCCOCCOCCOc2cc(F)c([C@@H]3c4[nH]c5ccccc5c4C[C@@H](C)N3CC(C)(C)F)c(F)c2)C(C)(C)C)C1 [Example 34, (3R,5S)-1-((S)-2-(tert-Butyl)-14-(3,5-difluoro-4-((1R,3R)-2-(2-fluoro-2-methylpropyl)-3-methyl-2,3,4,9-tetrahydro-1H-pyrido[3,4-b]indol-1-yl)phenoxy)-4-oxo-6,9,12-trioxa-3-azatetradecanoyl)-5-((4-(4-methylthiazol-5-yl)benzyl)carbamoyl)pyrrolidin-3-yl Acetate] — within 1.5-fold, 0.9 nM
- Cc1ncsc1-c1ccc(CNC(=O)[C@@H]2C[C@@H](O)CN2C(=O)[C@@H](NC(=O)COCCCCCOCCOc2cc(F)c([C@@H]3c4[nH]c5ccccc5c4C[C@@H](C)N3CC(C)(C)F)c(F)c2)C(C)(C)C)cc1 [Example 9, (2S,4R)-1-((S)-2-(2-((5-(2-(3,5-Difluoro-4-((1R,3R)-2-(2-fluoro-2-methylpropyl)-3-methyl-2,3,4,9-tetrahydro-1H-pyrido[3,4-b]indol-1-yl)phenoxy)ethoxy)pentyl)oxy)acetamido)-3,3-dimethylbutanoyl)-4-hydroxy-N-(4-(4-methylthiazol-5-yl)benzyl)pyrrolidine-2-carboxamide] — the same, 0.8 nM
- Cc1ncsc1-c1ccc(CNC(=O)[C@@H]2C[C@@H](O)CN2C(=O)[C@@H](NC(=O)COCCOCCCCCOc2cnc([C@@H]3c4[nH]c5ccccc5c4C[C@@H](C)N3CC(F)(F)F)c(F)c2)C(C)(C)C)cc1 [Example 165, (2S,4R)-1-((S)-2-(2-(2-((5-((5-Fluoro-6-((1S,3R)-3-methyl-2-(2,2,2-trifluoroethyl)-2,3,4,9-tetrahydro-1H-pyrido[3,4-b]indol-1-yl)pyridin-3-yl)oxy)pentyl)oxy)ethoxy)acetamido)-3,3-dimethylbutanoyl)-4-hydroxy-N-(4-(4-methylthiazol-5-yl)benzyl)pyrrolidine-2-carboxamide] — 14-fold higher, 11.4 nM
- COC(=O)[C@@H](C)CN1[C@H](c2c(F)cc(OCCOCCOCCOCC(=O)N[C@H](C(=O)N3C[C@H](O)C[C@H]3C(=O)NCc3ccc(-c4scnc4C)cc3)C(C)(C)C)cc2F)c2[nH]c3ccccc3c2C[C@H]1C [Example 29] — 7.4-fold higher, 5.9 nM
- Cc1ncsc1-c1ccc(CNC(=O)[C@@H]2C[C@@H](O)CN2C(=O)[C@@H](NC(=O)COCCCCCOCCOc2ccc([C@@H]3c4[nH]c5ccccc5c4C[C@@H](C)N3CC(F)F)nc2)C(C)(C)C)cc1 [Example 10, (2S,4R)-1-((S)-2-(2-((5-(2-((6-((1S,3R)-2-(2,2-Difluoroethyl)-3-methyl-2,3,4,9-tetrahydro-1H-pyrido[3,4-b]indol-1-yl)pyridin-3-yl)oxy)ethoxy)pentyl)oxy)acetamido)-3,3-dimethylbutanoyl)-4-hydroxy-N-(4-(4-methylthiazol-5-yl)benzyl)pyrrolidine-2-carboxamide] — 49-fold higher, 39 nM
- Cc1ncsc1-c1ccc(CNC(=O)[C@@H]2C[C@@H](O)CN2C(=O)[C@@H](NC(=O)CNCCC(F)(F)CCOc2cc(F)c([C@@H]3c4[nH]c5ccccc5c4C[C@@H](C)N3CC(C)(C)F)c(F)c2)C(C)(C)C)cc1 [Example 131, (2S,4R)-1-((S)-2-(2-((5-(3,5-Difluoro-4-((1R,3R)-2-(2-fluoro-2-methylpropyl)-3-methyl-2,3,4,9-tetrahydro-1H-pyrido[3,4-b]indol-1-yl)phenoxy)-3,3-difluoropentyl)amino)acetamido)-3,3-dimethylbutanoyl)-4-hydroxy-N-(4-(4-methylthiazol-5-yl)benzyl)pyrrolidine-2-carboxamide] — 2-fold higher, 1.6 nM
- Cc1ncsc1-c1ccc([C@H](C)NC(=O)[C@@H]2C[C@@H](O)CN2C(=O)[C@@H](NC(=O)COCCCCCOc2cc(F)c([C@@H]3c4[nH]c5ccccc5c4C[C@@H](C)N3CC(C)(C)F)c(F)c2)C(C)(C)C)cc1 [Example 28, (2S,4R)-1-((S)-2-(2-((5-(3,5-Difluoro-4-((1R,3R)-2-(2-fluoro-2-methylpropyl)-3-methyl-2,3,4,9-tetrahydro-1H-pyrido[3,4-b]indol-1-yl)phenoxy)pentyl)oxy)acetamido)-3,3-dimethylbutanoyl)-4-hydroxy-N—((S)-1-(4-(4-methylthiazol-5-yl)phenyl)ethyl)pyrrolidine-2-carboxamide] — the same, 0.8 nM
- Cc1ncsc1-c1ccc(CNC(=O)[C@@H]2C[C@@H](O)CN2C(=O)[C@@H](NC(=O)COCCCCCN(CCOc2cc(F)c([C@@H]3c4[nH]c5ccccc5c4C[C@@H](C)N3CC(C)(C)F)c(F)c2)C(=O)OCc2ccccc2)C(C)(C)C)cc1 [Example 45, Benzyl (2-(3,5-difluoro-4-((1R,3R)-2-(2-fluoro-2-methylpropyl)-3-methyl-2,3,4,9-tetrahydro-1H-pyrido[3,4-b]indol-1-yl)phenoxy)ethyl)(5-(2-(((S)-1-((2S,4R)-4-hydroxy-2-((4-(4-methylthiazol-5-yl)benzyl)carbamoyl)pyrrolidin-1-yl)-3,3-dimethyl-1-oxobutan-2-yl)amino)-2-oxoethoxy)pentyl)carbamate] — within 1.5-fold, 1.2 nM
